Measured values: ChEMBL document CHEMBL4261580, “Novel antitumor compound optimized from natural saponin Albiziabioside A induced caspase-dependent apoptosis and ferroptosis as a p53 activator through the mitochondrial pathway” (Eur J Med Chem, 2018)
Activity calls are given as the source filed them. The calls are words filed in the database; no cut-off is given here.

Experiments:
MCF7 = test: Antiproliferative activity against human MCF7 cells after 72 hrs by MTT assay; format: functional, cell-based; conditions: MCF7, 72 h
HaCaT = test: Antiproliferative activity against human HaCaT cells after 72 hrs by MTT assay; format: cell-based
BEAS-2B = test: Antiproliferative activity against human BEAS2B cells after 72 hrs by MTT assay; format: functional, cell-based
A549 = test: Antiproliferative activity against human A549 cells after 72 hrs by MTT assay; format: functional, cell-based; conditions: A549, 72 h
HCT-116 [1] = test: Antiproliferative activity against human HCT116 cells after 72 hrs by MTT assay; format: functional, cell-based; conditions: HCT-116, 72 h
MGC-803 = test: Antiproliferative activity against human MGC803 cells after 72 hrs by MTT assay; format: functional, cell-based; conditions: MGC-803, 72 h
[2] = Antiproliferative activity against human HBMEC cells after 72 hrs by MTT assay; format: cell-based
[3] = Antiproliferative activity against human CCD-841 cells after 72 hrs by MTT assay; format: cell-based; conditions: CCD-841, 72 h
L02 = test: Antiproliferative activity against human LO2 cells after 72 hrs by MTT assay; format: cell-based; conditions: L02, 72 h
HepG2 = test: Antiproliferative activity against human HepG2 cells after 72 hrs by MTT assay; format: functional, cell-based; conditions: HepG2, 72 h
HCT-116 [4] = test: Antitumor activity against human HCT116 cells xenografted in BALB/c nude mouse assessed as decrease in tumor weight at 20 mg/kg, iv administered once per day for 14 days and measured every 2 days; format: functional
HCT-116 [5] = test: Antitumor activity against human HCT116 cells xenografted in BALB/c nude mouse assessed as decrease in tumor size at 20 mg/kg, iv administered once per day for 14 days and measured every 2 days; format: functional

SMILES | IC50 (MCF7) | IC50 (HaCaT) | IC50 (BEAS-2B) | IC50 (A549) | IC50 (HCT-116 [1]) | IC50 (MGC-803) | IC50 [2] | IC50 [3] | IC50 (L02) | IC50 (HepG2) | Activity (HCT-116 [4]) | Activity (HCT-116 [5])
CC(=O)N[C@H]1[C@H](O[C@H]2CC[C@]3(C)[C@H]4CC=C5[C@@H]6CC(C)(C)CC[C@]6(C(=O)OCc6cn(-c7cccc(Br)c7)nn6)CC[C@@]5(C)[C@]4(C)CC[C@H]3C2(C)C)O[C@H](CO[C@@H]2OC[C@H](O)[C@H](O)[C@@H]2O)[C@@H](O)[C@@H]1O | 15 µM | 39.3 µM | 11.3 µM | 10.2 µM | 9.93 µM | 7.7 µM | 20.4 µM | 18.2 µM | 35.4 µM | 5.51 µM |  | 
CC(=O)N[C@H]1[C@H](O[C@H]2CC[C@]3(C)[C@H]4CC=C5[C@@H]6CC(C)(C)CC[C@]6(C(=O)O)CC[C@@]5(C)[C@]4(C)CC[C@H]3C2(C)C)O[C@H](CO[C@@H]2OC[C@H](O)[C@H](O)[C@@H]2O)[C@@H](O)[C@@H]1O | 21.9 µM |  |  | 17.6 µM | 16 µM | 20.8 µM |  |  |  | 11.4 µM | Active | Active
CC(=O)N[C@H]1[C@H](O[C@H]2CC[C@]3(C)[C@H]4CC=C5[C@@H]6CC(C)(C)CC[C@]6(C(=O)OCc6cn(-c7cccc(I)c7)nn6)CC[C@@]5(C)[C@]4(C)CC[C@H]3C2(C)C)O[C@H](CO[C@@H]2OC[C@H](O)[C@H](O)[C@@H]2O)[C@@H](O)[C@@H]1O | 10.8 µM | 29.5 µM | 14.6 µM | 9.08 µM | 12.2 µM | 10.1 µM | 18.7 µM | 36.5 µM | 27.4 µM | 5.39 µM |  | 
